Source: the NIST ThermoML archive (doi:10.1016/j.fluid.2012.09.038)
Numbers after ± are expanded uncertainties.

How the values were obtained:
[1] = refractive index (Na D-line) (dimensionless); conditions: 101.33 kPa, Liquid, Standard Abbe refractometry
[2] = 101.33 kPa, Liquid, Vibrating tube method

With CC(=O)OCCC(C)C [3-methylbutyl ethanoate] the refractive index ([1]; 298.2 K) was 1.3975 ± 0.0008 and the mass density ([2]; 298.2 K) was 866.7 ± 0.2 kg/m3.
Compound CC(=O)CCC(C)C [5-methyl-2-hexanone] has a refractive index ([1]; 293.2 K) of 1.4049 ± 0.0008 and a mass density ([2]; 293.2 K) of 887.9 ± 0.2 kg/m3.
Work on O [water] yielded a refractive index ([1]; 298.2 K) of 1.3324 ± 0.0008.
